The values that follow come from US12560588B2, “High-efficiency screening method for RNA-targeting drugs using nanopores” (KOREA RESEARCH INSTITUTE OF BIOSCIENCE AND BIOTECHNOLOGY, priority 2020, dated 2026).

The test system of the test is ARS mutant (ARS-Mut) with four base mutations (U28G, G42C, U47C and U51C). It counts as binding.

SMILES strings stand for the structures.

Regarding `Nc1ncnc2nc[nH]c12` [adenine], the “change versus free ARS-Mut” value is “not much different” and the td is 0.50 ms.
